Drawing on ChEMBL document CHEMBL5608163, “Structure modification of anoplin for fighting resistant bacteria” (Eur J Med Chem, 2024), this text covers MIC, HC50 and HC10 for four compounds.

In brackets after ≈: the same amount, converted by molar mass. Bridge positions count the residues as written; N and C are the ends. Square brackets hold non-standard residues; d marks the D form. Triazole bridges read from a SMILES are 1,4-linked. Peptide text beside a SMILES is read from it. I, II: the chains in the order shown. * marks the point of attachment. Lys(N3) = [N-]=[N+]=NCCCC[C@H](N)C(=O)O; Undecanoyl = CCCCCCCCCCC(=O)*; Pra = C#CC[C@H](N)C(=O)O Where only a bound is given, the exact number is not on record here.

In data set [1] the test system is Bacillus subtilis. Briefly: Antimicrobial activity against Bacillus subtilis ATCC 23857 assessed as reduction in microbial growth incubated for 18 to 20 hrs by Mueller-Hinton broth based microdilution method. In kind it is functional. The note with it: time 18-20 hrs.
Another data set concerns Enterococcus faecium. Put plainly: Antimicrobial activity against Enterococcus faecium assessed as reduction in microbial growth incubated for 18 to 20 hrs by Mueller-Hinton broth based microdilution method. In kind it is functional. The conditions noted are these: time 18-20 hrs.
Data set [2] relates to Escherichia coli. Put plainly: Antibacterial activity against Escherichia coli ATCC 25922 assessed as bacterial growth inhibition incubate for 18 to 20 hrs by MH broth based assay. Format: functional. The conditions noted are these: time 18-20 hrs.
The nature of data set [3]: Hemolytic activity in human RBC. In kind it is toxicity, cell-based, Erythrocyte. The conditions noted are these: red blood cells.
A short description of data set [4]: Hemolytic activity in mouse RBC incubated for 1 hr. The note with it: red blood cells. In kind it is toxicity, cell-based, Erythrocyte.
Data set [5] concerns Staphylococcus aureus. Put plainly: Antimicrobial activity against Staphylococcus aureus ATCC 25923 assessed as reduction in microbial growth incubated for 18 to 20 hrs by Mueller-Hinton broth based microdilution method. Format: functional. The note with it: time 18-20 hrs. A general note: In broth dilution the organism is exposed to a series of concentrations in liquid medium.

Data set [6] concerns Escherichia coli. Briefly: Antibacterial activity against Escherichia coli ATCC 25922 assessed as reduction in bacterial growth measured after 18 hrs by CLSI protocol-based Mueller-Hinton broth dilution method. In kind it is functional.
The test system of data set [7] is Staphylococcus aureus. Briefly: Antibacterial activity against Staphylococcus aureus ATCC 25923 assessed as reduction in bacterial growth measured after 18 hrs by CLSI protocol-based Mueller-Hinton broth dilution method. Format: functional.
For a further data set, the system named is Erythrocyte. Put plainly: Hemolytic activity in human red blood cells. In kind it is toxicity, cell-based. The conditions noted are these: erythrocyte.
In data set [8] the test system is Bacillus subtilis. Put plainly: Antibacterial activity against Bacillus subtilis ATCC 23857 assessed as reduction in bacterial growth measured after 18 hrs by CLSI protocol-based Mueller-Hinton broth dilution method. Format: functional.
Data set [9] has as its system Pseudomonas aeruginosa. Put plainly: Antibacterial activity against Pseudomonas aeruginosa ATCC 27853 assessed as reduction in bacterial growth measured after 18 hrs by CLSI protocol-based Mueller-Hinton broth dilution method. In kind it is functional.
Data set [10] deals with Bacillus subtilis. Briefly: Antibacterial activity against Bacillus subtilis assessed as bacterial growth inhibition. In kind it is functional.
Data set [11] has as its system Pseudomonas aeruginosa. Briefly: Antibacterial activity against Pseudomonas aeruginosa PAO1 assessed as reduction in bacterial growth. Format: functional.
For data set [12], the system named is Pseudomonas aeruginosa. Briefly: Antibacterial activity against Pseudomonas aeruginosa PAO1 assessed as bacterial growth inhibition. Format: functional.
The test system of data set [13] is Zymomonas mobilis. Put plainly: Antibacterial activity against Zymomonas mobilis ATCC 10988 assessed as bacterial growth inhibition. In kind it is functional.
In data set [14] the test system is Escherichia coli. Briefly: Antibacterial activity against Escherichia coli DH5a assessed as reduction in bacterial growth. In kind it is functional.
In data set [15] the test system is Escherichia coli. Put plainly: Antibacterial activity against Escherichia coli DH5a assessed as bacterial growth inhibition. In kind it is functional.
Data set [16] deals with Mycolicibacterium smegmatis. Put plainly: Antibacterial activity against Mycobacterium smegmatis mc2 155 assessed as bacterial growth inhibition. Format: functional.
The test system of data set [17] is Bacillus subtilis. Put plainly: Antibacterial activity against Bacillus subtilis assessed as reduction in bacterial growth. In kind it is functional.
Data set [18] in a line: Hemolytic activity in human erythrocytes measured after 1 hrs by microplate reader analysis. Format: toxicity, cell-based, Erythrocyte.
The test system of data set [19] is Zymomonas mobilis. Put plainly: Antibacterial activity against Zymomonas mobilis ATCC 10988 assessed as reduction in bacterial growth. In kind it is functional.
The subject of data set [20] is Mycolicibacterium smegmatis. Put plainly: Antimycobacterial activity against Mycobacterium smegmatis mc2 155 assessed as reduction in bacterial cell growth incubated for 48 hrs by resazurin dye based assay. Format: functional. For orientation: Resazurin is reduced to fluorescent resorufin, in cell work by metabolically active cells.
The nature of data set [21]: Hemolytic activity in human erythrocytes. Format: toxicity, cell-based, Erythrocyte.

On to `CC(C)C[C@H](NC(=O)[C@H](CC(C)C)NC(=O)[C@H](CCCCN)NC(=O)[C@H](CCCCN)NC(=O)[C@H](Cc1c[nH]c2ccccc12)NC(=O)[C@H](Cc1c[nH]c2ccccc12)NC(=O)[C@H](CCCCN)NC(=O)[C@H](CC(C)C)NC(=O)[C@H](CC(C)C)NC(=O)[C@@H](N)CCCCN)C(N)=O` (H-KLLKWWKKLL-NH2), for which the MIC with Bacillus subtilis [1] worked out at 8 µM; with Enterococcus faecium, 8 µM; in the data set on Escherichia coli [2] it was 16 µM (≈ 21.7 µg/mL); in the data set on Staphylococcus aureus [5] it was 16 µM. This compound displayed an HC50 in data set [3] greater than 200 µM. This compound came in with an HC50 at 1 h in [4] greater than 200 µM.
For `CC[C@H](C)[C@H](NC(=O)[C@H](CCCNC(=N)N)NC(=O)[C@H](CCCCN)NC(=O)[C@H](CC(C)C)NC(=O)[C@H](CC(C)C)NC(=O)CNC(=O)[C@H](CCCCn1cc(C[C@H](NC(C)=O)C(=O)NCC(=O)N[C@@H](CC(C)C)C(=O)N[C@@H](CC(C)C)C(=O)N[C@@H](CCCCN)C(=O)N[C@@H](CCCNC(=N)N)C(=O)N[C@H](C(=O)N[C@@H](CCCCN)C(=O)N[C@H](C(=O)N[C@@H](CC(C)C)C(=O)N[C@@H](CC(C)C)C(N)=O)[C@@H](C)O)[C@@H](C)CC)nn1)NC(C)=O)C(=O)N[C@@H](CCCCN)C(=O)N[C@H](C(=O)N[C@@H](CC(C)C)C(=O)N[C@@H](CC(C)C)C(N)=O)[C@@H](C)O` (I: Ac-[Lys(N3)]GLLKRIKTLL-NH2 / II: Ac-[Pra]GLLKRIKTLL-NH2; triazole I:1-II:1), the MIC in the data set with Escherichia coli [6] turned out to be 4 µM (≈ 10.6 µg/mL); in the data set on Staphylococcus aureus [7], 8 µM (≈ 21.1 µg/mL); with Bacillus subtilis [8], 2 µM (≈ 5.28 µg/mL); with Pseudomonas aeruginosa [9], 16 µM (≈ 42.2 µg/mL). Also, the HC10 with Erythrocyte turned out to be 150 µM.
In the case of `CC[C@H](C)[C@H](NC(=O)[C@H](CCCNC(=N)N)NC(=O)[C@H](CCCCN)NC(=O)[C@H](CC(C)C)NC(=O)[C@H](CC(C)C)NC(=O)CNC(=O)[C@H](Cc1cn(CCCC[C@H](NC(C)=O)C(=O)N[C@@H](CCCNC(=N)N)C(=O)N[C@@H](CCCNC(=N)N)C(=O)N[C@@H](Cc2c[nH]c3ccccc23)C(=O)N[C@@H](Cc2c[nH]c3ccccc23)C(=O)N[C@@H](CCCNC(=N)N)C(=O)N[C@@H](Cc2ccccc2)C(N)=O)nn1)NC(C)=O)C(=O)N[C@@H](CCCCN)C(=O)N[C@H](C(=O)N[C@@H](CC(C)C)C(=O)N[C@@H](CC(C)C)C(N)=O)[C@@H](C)O` (I: Ac-[Pra]GLLKRIKTLL-NH2 / II: Ac-[Lys(N3)]RRWWRF-NH2; triazole I:1-II:1), the MIC in the data set with Escherichia coli [6] was determined as 8 µM (≈ 19.9 µg/mL); with Staphylococcus aureus [7] it was 4 µM (≈ 9.97 µg/mL); in the data set with Bacillus subtilis [8], 4 µM (≈ 9.97 µg/mL); with Pseudomonas aeruginosa [9], 16 µM (≈ 39.9 µg/mL). Also, in the data set on Erythrocyte, the HC10 is greater than 150 µM.
For `CCCCCCCCCCC(=O)NCC(=O)N[C@@H](CC(C)C)C(=O)N[C@@H](CC(C)C)C(=O)N[C@@H](CCCCN)C(=O)N[C@@H](Cc1ccccc1)C(=O)N[C@H](C(=O)N[C@@H](CCCCN)C(=O)N[C@@H](CCCCN)C(=O)N[C@@H](CC(C)C)C(=O)N[C@@H](CC(C)C)C(N)=O)[C@@H](C)CC` (Undecanoyl-GLLKFIKKLL-NH2), the MIC in the data set with Bacillus subtilis [10] is greater than 170 µM; in the data set on Pseudomonas aeruginosa [11], 3.77 µM (≈ 5.05 µg/mL); in the data set with Pseudomonas aeruginosa [12] it was 33.9 µM (≈ 45.4 µg/mL); with Zymomonas mobilis [13] it was 12.7 µM (≈ 17 µg/mL); with Escherichia coli [14] it was 22.6 µM (≈ 30.3 µg/mL); with Escherichia coli [15], greater than 170 µM. The minimum inhibitory concentration (MIC) in data set [16] was greater than 168 µM; with Bacillus subtilis [17], 8 µM (≈ 10.7 µg/mL); with Zymomonas mobilis [19] it was 3.77 µM (≈ 5.05 µg/mL); in data set [20], 3.77 µM (≈ 5.05 µg/mL). Further, the HC50 at 1 h in data set [18] was 148 µM. The compound also registered a concentration for 50% haemolysis (HC50) in data set [21] of less than 377 µM.

Usually MIC stands for the lowest concentration that inhibits growth of the organism. The HC50 is the concentration giving 50% haemolysis. A high value points to less damage to red cells.
